Experimental data taken from the supplement of paper PMC10307832.

Experiments:
Assay in all cases: relative viability (nuclei count vs DMSO), 5 days (fraction); higher = more cells survive
[1] = compound: C1=CC=C2C(=C1)N=C(S2)C(C#N)C3=NC(=NC=C3)NCCC4=CN=CC=C4 + CC(=O)c1c(C)c2cnc(Nc3ccc(N4CCNCC4)cn3)nc2n(C2CCCC2)c1=O [Palbociclib] (partner 0.5 µM)
Outline: (§1)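 Cells from lung cancer lines were seeded into 1536-well plates and, one day later, dosed by pin tool. Treatments were either a single drug or a fixed dose of an anchor drug with five library-drug doses (not always all listed) in √10 steps. After 5 days, nuclei were stained in a one-step fixation (final 0.05% Triton X-100, 1% formaldehyde, 1 ug/ml Hoechst) and counted on 4× images, and relative viability is the treated-to-vehicle nuclei ratio, as the median of duplicate plates.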

[2] = compound: COc1cc2/c(=N/c3ccc(Br)cc3F)nc[nH]c2cc1OCC1CCN(C)CC1 [Vandetanib] + CC(=O)c1c(C)c2cnc(Nc3ccc(N4CCNCC4)cn3)nc2n(C2CCCC2)c1=O [Palbociclib] (partner 0.5 µM)
Outline: as §1

[3] = compound: C1=CC=C2C(=C1)N=C(S2)C(C#N)C3=NC(=NC=C3)NCCC4=CN=CC=C4 + CS(=O)(=O)N1CCN(Cc2cc3nc(-c4cccc5[nH]ncc45)nc(N4CCOCC4)c3s2)CC1 [Pictilisib] (partner 1 µM)
Outline: as §1

[4] = compound: COc1cc2/c(=N/c3ccc(Br)cc3F)nc[nH]c2cc1OCC1CCN(C)CC1 [Vandetanib] + CC(C)C[C@H](NC(=O)[C@H](Cc1ccccc1)NC(=O)c1cnccn1)B(O)O [Bortezomib] (partner 0.002 µM)
Outline: as §1

Cell Line	relative viability ([1]; first compound 0.005 µM)	relative viability ([1]; first compound 0.01581 µM)	relative viability ([1]; first compound 0.05 µM)	relative viability ([1]; first compound 0.1581 µM)	relative viability ([1]; first compound 0.5 µM)	relative viability ([2]; first compound 0.02 µM)	relative viability ([2]; first compound 0.06325 µM)	relative viability ([2]; first compound 0.2 µM)	relative viability ([2]; first compound 0.6325 µM)	relative viability ([2]; first compound 2 µM)	relative viability ([3]; first compound 0.005 µM)	relative viability ([3]; first compound 0.01581 µM)	relative viability ([3]; first compound 0.05 µM)	relative viability ([3]; first compound 0.1581 µM)	relative viability ([3]; first compound 0.5 µM)	relative viability ([4]; first compound 0.02 µM)	relative viability ([4]; first compound 0.06325 µM)	relative viability ([4]; first compound 0.2 µM)	relative viability ([4]; first compound 0.6325 µM)	relative viability ([4]; first compound 2 µM)
NCI-H1993	0.651	0.64	0.699	0.708	0.694	0.661	0.628	0.602	0.581	0.392	0.862	0.963	0.848	0.64	0.745	1.03	0.905	1.04	0.807	0.719
NCI-H2009	0.223	0.168	0.215	0.229	0.206	0.221	0.3	0.197	0.25	0.25	0.853	0.644	0.845	1	0.835	0.895	0.931	1.06	0.996	1.21
NCI-H2023	0.328	0.309	0.394	0.383	0.332	0.359	0.369		0.314	0.319	0.283	0.205	0.209	0.265	0.239	0.924	0.839	0.96	1.03	1.04
NCI-H2085	0.428	0.465	0.415	0.472	0.471	0.447	0.479	0.496	0.498	0.489	0.43	0.43	0.39	0.483	0.388	1.08	1.02	1.02	1.09	1.04
NCI-H2087	0.24	0.208	0.214	0.261	0.227	0.244	0.196	0.183	0.281	0.212	0.873	0.856	0.883	1.04	0.92	0.813	0.761	0.859	0.857	0.833
NCI-H2126	0.299	0.363	0.365	0.347	0.354	0.338	0.348	0.328	0.356	0.35	0.499	0.493	0.417	0.526	0.487	1.09	1.07	1.06	1.08	1.06
NCI-H2228	0.564	0.886	0.649	1.12	0.597	0.718	0.644	0.804	0.725	0.659	0.341	0.283	0.37	0.307	0.402	0.775	0.942		1.03	0.814
NCI-H2347	0.455	0.45	0.484	0.447	0.444	0.423	0.315	0.476	0.457	0.443	0.474	0.695	0.659	0.756	0.609	0.878		0.896	0.956	0.969
